Measurements taken from ChEMBL document CHEMBL1255224, “Design and synthesis of prolylcarboxypeptidase (PrCP) inhibitors to validate PrCP as a potential target for obesity” (J Med Chem, 2010).

Columns and labels:
[1] = Clearance in mouse; type: ADME, organism-based; conditions: in vivo
[2] = Volume of distribution in mouse; type: ADME, organism-based; conditions: in vivo
[3] = Half life in mouse; type: ADME, organism-based; conditions: in vivo
[4] = Oral bioavailability in mouse; type: ADME, organism-based; conditions: in vivo
[5] = molecular target: T1, Lysosomal Pro-X carboxypeptidase (Mus musculus, UniProt Q7TMR0); assay: Inhibition of mouse PrCP by FRET
T1 sequence (Q7TMR0 whole entry): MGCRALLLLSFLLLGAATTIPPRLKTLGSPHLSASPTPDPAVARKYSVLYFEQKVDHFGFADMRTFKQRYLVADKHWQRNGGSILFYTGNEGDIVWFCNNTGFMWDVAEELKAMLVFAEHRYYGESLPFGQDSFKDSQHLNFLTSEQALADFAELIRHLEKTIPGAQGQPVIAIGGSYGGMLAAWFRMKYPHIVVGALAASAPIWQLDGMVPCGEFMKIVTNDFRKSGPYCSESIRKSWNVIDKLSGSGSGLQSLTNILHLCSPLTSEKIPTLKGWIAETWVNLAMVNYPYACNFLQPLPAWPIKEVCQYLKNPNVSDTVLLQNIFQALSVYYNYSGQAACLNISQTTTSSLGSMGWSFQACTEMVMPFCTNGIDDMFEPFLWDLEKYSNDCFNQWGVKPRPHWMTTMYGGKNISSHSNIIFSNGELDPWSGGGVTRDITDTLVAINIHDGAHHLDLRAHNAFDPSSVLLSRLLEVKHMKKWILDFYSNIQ

[6] = molecular target: T1, Lysosomal Pro-X carboxypeptidase; assay: Inhibition of mouse PrCP by FRET in presence of 1% mouse serum albumin
Mus musculus [7] = assay: Antiobesity activity against C57BL/6NT mouse overexpressing PrCP assessed as reduction in body weight at 100 mg/kg, po; type: functional; parameters: scale not given: the % may be the effect or the level left
Mus musculus [8] = assay: Antiobesity activity against C57BL/6NT mouse PrCP knock out model assessed as reduction in body weight at 100 mg/kg, po for 5 days; type: functional; parameters: scale not given: the % may be the effect or the level left
Blood [9] = assay: Drug level in C57BL/6NT wild type mouse blood at 100 mg/kg, po; type: ADME, organism-based; parameters: dose 100 mg/kg, route oral; conditions: in vivo, read-out: Activity
Brain [10] = assay: Drug level in C57BL/6NT wild type mouse brain at 100 mg/kg, po; type: ADME, organism-based; parameters: dose 100 mg/kg, route oral; conditions: in vivo, read-out: Activity
Blood [11] = assay: Drug level in C57BL/6NT PrCP knock out mouse blood at 100 mg/kg, po; type: ADME, organism-based; parameters: dose 100 mg/kg, route oral; conditions: in vivo, read-out: Activity
Brain [12] = assay: Drug level in C57BL/6NT PrCP knock out mouse brain at 100 mg/kg, po; type: ADME, organism-based; parameters: dose 100 mg/kg, route oral; conditions: in vivo, read-out: Activity

clearance [1] | Vd [2] | half-life [3] | bioavailability [4] | IC50 [5] | IC50 [6] | concentration (Blood [9]) | concentration (Brain [10]) | concentration (Blood [11]) | concentration (Brain [12]) | SMILES | Activity (Mus musculus [7]) | Activity (Mus musculus [8])
23 mL/min/kg | 7.9 L/kg | 4.3 h | 0% | – | – | – | – | – | – | CC(C)(CN)C(=O)N[C@@H](Cc1ccc(-c2ccccc2)cc1)C(=O)N1CCC[C@H]1c1nc2cc(Cl)c(Cl)cc2[nH]1 | – | –
39 mL/min/kg | 1.5 L/kg | 0.5 h | 9% | – | – | – | – | – | – | CC(C)(O)C(=O)N[C@@H](Cc1ccc(-c2ccccc2)cc1)C(=O)N1CCC[C@H]1c1nc2cc(F)c(F)cc2[nH]1 | – | –
23 mL/min/kg | 1.2 L/kg | 0.8 h | 12% | – | – | – | – | – | – | C[C@@H](c1ccc(-c2ccc(F)cc2)cc1)[C@H](NC(=O)C(C)(C)O)C(=O)N1CCC[C@H]1c1nc2cc(Cl)c(Cl)cc2[nH]1 | – | –
23 mL/min/kg | 4.4 L/kg | 2.3 h | 13% | 2 nM | 8 nM | 380 nM | 50 nM | 430 nM | 40 nM | C[C@@H](c1ccc(-c2ccccc2)cc1)[C@H](NC(=O)C(C)(C)N)C(=O)N1CCC[C@H]1c1nc2cc(Cl)c(Cl)cc2[nH]1 | 4.9% | 1.1%
72 mL/min/kg | 2.4 L/kg | 0.5 h | 4% | 29 nM | 98 nM | – | – | – | – | C[C@@H](c1ccccc1)[C@H](NC(=O)C(C)(C)O)C(=O)N1CCC[C@H]1c1nc2cc(Cl)c(Cl)cc2[nH]1 | – | –
14 mL/min/kg | 6.8 L/kg | 5.2 h | 0% | – | – | – | – | – | – | CC(C)(N)CC(=O)N[C@@H](Cc1ccc(-c2ccccc2)cc1)C(=O)N1CCC[C@H]1c1nc2cc(Cl)c(Cl)cc2[nH]1 | – | –
17 mL/min/kg | 1.5 L/kg | 1.5 h | 41% | 32 nM | 60 nM | – | – | – | – | C[C@@H](c1ccccc1)[C@H](NC(=O)C(C)(C)N)C(=O)N1CCC[C@H]1c1nc2cc(Cl)c(Cl)cc2[nH]1 | – | –
7 mL/min/kg | 2.6 L/kg | 3 h | 100% | – | – | – | – | – | – | CC(C)(N)C(=O)N[C@@H](Cc1ccc(Cl)cc1)C(=O)N1CCC[C@H]1c1nc2cc(Cl)c(Cl)cc2[nH]1 | – | –
12 mL/min/kg | 2.7 L/kg | 2.8 h | 31% | 15 nM | 789 nM | – | – | – | – | CC(C)(N)C(=O)N[C@@H](Cc1ccc(-c2ccccc2)cc1)C(=O)N1CCC[C@H]1c1nc2cc(Cl)c(Cl)cc2[nH]1 | – | –
70 mL/min/kg | 14 L/kg | 2.6 h | 0% | – | – | – | – | – | – | Cn1cc(-c2ccc(C[C@H](NC(=O)C(C)(C)N)C(=O)N3CCC[C@H]3c3nc4cc(Cl)c(Cl)cc4[nH]3)cc2)ccc1=O | – | –

More lines, now with the values behind:

SMILES | clearance [1] | Vd [2] | half-life [3] | bioavailability [4] | IC50 [5] | IC50 [6] | concentration (Blood [9]) | concentration (Brain [10]) | concentration (Blood [11]) | concentration (Brain [12]) | Activity (Mus musculus [7]) | Activity (Mus musculus [8])
CC(C)(Cc1ccc(-c2cccc(Cl)c2Cl)cc1)C(=O)N1CC(F)(F)C[C@H]1c1ncc(-c2cccc(Br)c2)[nH]1 | 15 mL/min/kg | 4 L/kg | 9.6 h | 5% | – | – | – | – | – | – | – | –
Cc1cccc2[nH]c([C@@H]3[C@@H]4C[C@@H]4CN3C(=O)COc3ccc(-c4ccccc4)cc3)nc12 | 41 mL/min/kg | 2.3 L/kg | 0.6 h | 20% | – | – | – | – | – | – | – | –
O=C(CCc1ccc(-c2ccccc2)cc1)N1CCC[C@H]1c1ncc(-c2cccc(F)c2)[nH]1 | 75 mL/min/kg | 4.6 L/kg | 0.8 h | 5% | 871 nM | – | – | – | – | – | – | –
N#Cc1cccc(-c2ccc(CCC(=O)N3C[C@H](O)C[C@H]3c3nc(-c4cccc(Cl)c4)c[nH]3)cc2)c1 | 82 mL/min/kg | 2.2 L/kg | 0.6 h | 1% | – | – | – | – | – | – | – | –
CC(C)(Cc1ccc(-c2ccccc2)cc1)C(=O)N1CCC[C@H]1c1nc(-c2cccc(F)c2)c[nH]1 | 92 mL/min/kg | 8.8 L/kg | 2.3 h | 5% | – | – | – | – | – | – | – | –
Cc1ccccc1-c1c[nH]c([C@@H]2CCCN2C(=O)COc2ccc(-c3ccccc3)cc2)n1 | 54 mL/min/kg | 4 L/kg | 3.4 h | 49% | – | – | – | – | – | – | – | –
COc1ccc(C[C@H](NC(=O)C(C)(C)N)C(=O)N2CC[C@H]2c2nc3cc(Cl)c(Cl)cc3[nH]2)cc1 | 25 mL/min/kg | 2.2 L/kg | 1.4 h | 33% | 251 nM | 3320 nM | – | – | – | – | – | –
CC(C)(O)C(=O)N[C@@H](Cc1ccc(-c2ccccc2)cc1)C(=O)N1CCC[C@H]1c1ncc(C(C)(C)C)[nH]1 | 117 mL/min/kg | 2.9 L/kg | 0.4 h | 0% | 16 nM | 15 nM | – | – | – | – | – | –
CC(C)(N)C(=O)N[C@@H](Cc1ccc(-c2ccccc2)cc1)C(=O)N1CCC[C@H]1c1ncc(C(C)(C)C)[nH]1 | 11 mL/min/kg | 11 L/kg | 15 h | 6% | 41 nM | 17 nM | – | – | – | – | – | –
